Several values for one entry are separate records, joined by “and”; a condition that tells them apart may be missing. Equal values may be shown once.
Experiment: Glucose, insulin, and pyruvate tolerance tests
Format: in vivo, mouse
Parameters: AUC of IGTT, Total Area / AUC analysis of ITT, Total Area / AUC of ITT, group mean / AUC of PTT, group mean / IGTT, Mean Diff. APC - VEH / IGTT, group mean (Mean 1, APC): unit not given beside the values
Conditions: for blood glucose, PTT in DIO, group mean / blood glucose, IGTT, mean / ITT, group mean: N=7; for blood glucose: OGTT in db/db; for IGTT, group mean (Mean 1, APC): n=8
Procedure: After overnight fasting, mice were i.p. injected or treated orally with D-glucose (1–2 g/kg) for glucose-tolerance tests (IGTT or OGTT) or injecting with sodium pyruvate (1–2 g/kg) for pyruvate tolerance tests (PTT). Insulin-tolerance tests (ITT) were performed by i.p. injection of insulin (1 U/kg) 2-h after food removal. […]

[1] = DIO and db/db mice, i.p. 20 mg/kg, 5 weeks

SMILES: CC(C)=CCc1cc(C=CC(=O)O)cc(CC=C(C)C)c1O [APC, 3,5-diprenyl-4-hydroxycinnamic acid]
- capability for gluconeogenesis (PTT) [1]: significantly inhibited
- whole-body insulin sensitivity (GTT and ITT) [1]: greatly enhanced
- blood glucose, PTT in DIO, group mean (DIO mice, 0 mins of PTT, mean of APC group): 98.23 mg/dL
- blood glucose, PTT in DIO (DIO mice, 0 mins of PTT, single animals, n=7): 79.2 mg/dL and 84.6 mg/dL and 104.4 mg/dL and 95.4 mg/dL and 124.2 mg/dL and 122.4 mg/dL and 77.4 mg/dL
- blood glucose, PTT in DIO, group mean (DIO mice, 15 mins of PTT, mean of APC group): 148.9 mg/dL
- blood glucose, PTT in DIO (DIO mice, 15 mins of PTT, single animals, n=7): 135 mg/dl and 153 mg/dl and 190.8 mg/dl and 156.6 mg/dl (2×) and 127.8 mg/dl and 122.4 mg/dl
- blood glucose, PTT in DIO, group mean (DIO mice, 30 mins of PTT, mean of APC group): 191.6 mg/dL
- blood glucose, PTT in DIO (DIO mice, 30 mins of PTT, single animals, n=7): 160.2 mg/dL and 192.6 mg/dL and 210.6 mg/dL and 185.4 mg/dL and 230.4 mg/dL and 187.2 mg/dL and 174.6 mg/dL
- blood glucose, PTT in DIO, group mean (DIO mice, 60 mins of PTT, mean of APC group): 174.9 mg/dL
- blood glucose, PTT in DIO (DIO mice, 60 mins of PTT, single animals, n=7): 129.6 mg/dL and 163.8 mg/dL and 210.6 mg/dL and 156.6 mg/dL and 248.4 mg/dL and 176.4 mg/dL and 138.6 mg/dL
- blood glucose, PTT in DIO, group mean (DIO mice, 120 mins of PTT, mean of APC group): 133.2 mg/dL
- blood glucose, PTT in DIO (DIO mice, 120 mins of PTT, single animals, n=7): 93.6 mg/dl and 126 mg/dl (2×) and 165.6 mg/dl and 178.2 mg/dl and 120.6 mg/dl and 122.4 mg/dl
- blood glucose, PTT in DIO, mean over all time points (DIO mice, Mean of APC, two-way RM ANOVA): 149.3 mg/dL
- AUC of PTT, group mean (DIO mice, mean of APC group, n=7): 631
- Total Area of PTT (AUC analysis of PTT) (DIO mice, single animals, n=7): 511.2 and 614.7 and 747 and 609.3 and 757.8 and 641.7 and 535.5
- blood glucose, IGTT, mean (Figure 8f, IGTT in DIO, 0 mins, group mean, VEH 112.9): 93.09 mg/dL
- blood glucose, IGTT (Figure 8f, IGTT in DIO, 0 mins, individual mice): 109.80 mg/dl (2×) and 84.60 mg/dl (2×) and 72.00 mg/dl and 97.20 mg/dl and 93.60 mg/dl
- blood glucose, IGTT, mean (Figure 8f, IGTT in DIO, 15 mins, group mean, VEH 362.1): 364.4 mg/dL
- blood glucose, IGTT (Figure 8f, IGTT in DIO, 15 mins, individual mice): 243.00 mg/dL and 401.40 mg/dL and 361.80 mg/dL and 469.80 mg/dL and 279.00 mg/dL and 376.20 mg/dL and 419.40 mg/dL
- blood glucose, IGTT, mean (Figure 8f, IGTT in DIO, 30 mins, group mean, VEH 448.5): 358.7 mg/dL
- blood glucose, IGTT (Figure 8f, IGTT in DIO, 30 mins, individual mice): 198.00 mg/dL and 376.20 mg/dL and 453.60 mg/dL and 383.40 mg/dL and 358.20 mg/dL and 468.00 mg/dL and 273.60 mg/dL
- blood glucose, IGTT, mean (Figure 8f, IGTT in DIO, 60 mins, group mean, VEH 351.8): 257.9 mg/dL
- blood glucose, IGTT (Figure 8f, IGTT in DIO, 60 mins, individual mice): 171.00 mg/dL and 248.40 mg/dL and 298.80 mg/dL and 241.20 mg/dL and 307.80 mg/dL and 372.60 mg/dL and 165.60 mg/dL
- blood glucose, IGTT, mean (Figure 8f, IGTT in DIO, 100 mins, group mean, VEH 222.7): 157.1 mg/dL
- blood glucose, IGTT (Figure 8f, IGTT in DIO, 100 mins, individual mice): 140.40 mg/dL and 131.40 mg/dL and 176.40 mg/dL and 138.60 mg/dL and 207.00 mg/dL and 190.80 mg/dL and 115.20 mg/dL
- AUC of IGTT, Total Area (Figure 8f, IGTT in DIO, individual mice): 737.1 and 1134 and 1257 and 1200 and 1097 and 1359 and 958.5
- blood glucose, ITT (Figure 8g, ITT in DIO, 0 mins, individual mice): 163.8 mg/dl (2×) and 151.2 mg/dl and 124.2 mg/dl and 156.6 mg/dl (2×) and 160.2 mg/dl
- blood glucose, ITT (Figure 8g, ITT in DIO, 15 mins, individual mice): 91.8 mg/dL and 75.6 mg/dL and 79.2 mg/dL and 93.6 mg/dL and 97.2 mg/dL and 77.4 mg/dL and 108 mg/dL
- blood glucose, ITT (Figure 8g, ITT in DIO, 30 mins, individual mice): 88.2 mg/dl (2×) and 73.8 mg/dl and 93.6 mg/dl and 82.8 mg/dl and 68.4 mg/dl and 86.4 mg/dl
- blood glucose, ITT (Figure 8g, ITT in DIO, 60 mins, individual mice): 75.6 mg/dL and 88.2 mg/dL and 79.2 mg/dL and 93.6 mg/dL and 81 mg/dL and 61.2 mg/dL and 52.2 mg/dL
- blood glucose, ITT (Figure 8g, ITT in DIO, 100 mins, individual mice): 86.4 mg/dl (2×) and 124.2 mg/dl and 75.6 mg/dl and 88.2 mg/dl (2×) and 50.4 mg/dl
- AUC analysis of ITT, Total Area (Figure 8g, ITT in DIO, individual mice): 380.7 and 389.7 and 337.5 and 396.9 and 383.4 and 333 and 351.9
- blood glucose (Figure 9g, Time 0.0 mins, single animals): 320.4 mg/dL and 340.2 mg/dL and 352.8 mg/dL and 234.0 mg/dL and 396.0 mg/dL
- blood glucose (Figure 9g, Time 30.0 mins, single animals): 345.6 mg/dL and 576.0 mg/dL and 259.2 mg/dL and 268.2 mg/dL and 599.4 mg/dL
- blood glucose (Figure 9g, Time 60.0 mins, single animals): 334.8 mg/dL and 468.0 mg/dL and 158.4 mg/dL and 194.4 mg/dL and 502.2 mg/dL
- blood glucose (Figure 9g, Time 90.0 mins, single animals): 268.2 mg/dL and 486.0 mg/dL and 162.0 mg/dL and 203.4 mg/dL and 419.4 mg/dL
- AUC of OGTT, mean (Figure 9g, db/db, group mean, n 5): 1059
- AUC of OGTT (Figure 9g, db/db, single animals): 974.7 and 1457 and 675 and 681.3 and 1509
- OGTT in db/db, column mean of blood glucose (Figure 9g, mean over all time points and animals, N 20): 344.4 mg/dL
- ITT, group mean (0 min, mean of APC group): 153.8
- ITT, group mean (15 min, mean of APC group): 88.97
- ITT, group mean (30 min, mean of APC group): 83.06
- ITT, group mean (60 min, mean of APC group): 75.86
- ITT, group mean (100 min, mean of APC group): 85.63
- AUC of IGTT in db/db, difference between means (APC - VEH) ± SEM (db/db mice): -383.6 ± 97.97
- IGTT, Mean Diff. APC - VEH (db/db mice, 0 min): -33.3
- IGTT, group mean (Mean 1, APC) (db/db mice, 0 min): 142
- IGTT, Mean Diff. APC - VEH (db/db mice, 15 min): -2.925
- IGTT, group mean (Mean 1, APC) (db/db mice, 15 min): 441.9
- IGTT, Mean Diff. APC - VEH (db/db mice, 30 min): -145.1
- IGTT, group mean (Mean 1, APC) (db/db mice, 30 min): 281

Reference: paper PMC8752738, “A propolis-derived small molecule ameliorates metabolic syndrome in obese mice by targeting the CREB/CRTC2 transcriptional complex” (Nature Communications, 2022)
